Where two headings read alike, the source gives them in different places.
How the values were obtained:
GPR37 [1] = assay: Ca2+ imaging (Fluo-4AM) in peritoneal macrophages (pMΦ) from WT and Gpr37−/− mice; format: cell-based, mouse; settings: GPR37-deficient pMΦ vs WT
Experimental: (§1) Peritoneal macrophage culture. Peritoneal macrophages were collected by peritoneal lavage with 10 ml warm PBS containing of 1 mM EDTA. Cells were incubated in DMEM supplemented with 10% FBS at 37° C. for 2 h in petri dish and washed with PBS to eliminate non-adherent cells. The adherent cells were used as peritoneal macrophages. Peritoneal macrophages were used after 3 days of culture.
(§2) Calcium imaging. HEK 293 cells, with or without transfection of Gpr37, GPR32, ChemR23 or ALX1 cDNA, were loaded with 5 μM Fura-2AM (Invitrogen) for 1 hour and then were resuspended in normal external buffer (140 NaCl, 5 KCl, 2 CaCl2, 2 MgCl2, 10 HEPES, in mM, titrated to pH 7.4 with NaOH) or external Ca^2+-free buffer (140 NaCl, 2 MgCl2, 5 EGTA, 10 HEPES, in mM, titrated to pH 7.4 with NaOH). Peritoneal macrophages, collected from WT and Gpr37 KO mice, were loaded with 5 μM […] (Invitrogen) for 1 hour and then were resuspended in normal external buffer. Images of the HEK 293 cells and macrophages with the excitation wavelength of 340 nm and 380 nm were captured with a cooled Digital CMOS camera (ORCA-Flash 4.0, Hamamatsu Photonics K.K, Japan). The ratio of fluorescence intensity of the two wavelengths in each experiment was analyzed using MetaFluor (Molecular Devices). The Shutter speed and wavelength was controlled by Lambda DG-4 system (Sutter instrument Co., Novato, CA). Values from each of the experiments were normalized to the baseline ratio of 340/380 nm.
(§3) Next, we conducted GPR37-mediated Ca^2+ imaging in native pMΦ from WT and Gpr37^−/− mice using Fluo-4AM as a Ca^2+ indicator, since this dye works better than Fura-2AM for pMΦ. […] As compared to iCa^2+ increase in GPR37-expressing HEK293 cells, NPD1 trigger a slow-onset but more persistent Ca^2+ response in pMΦ (FIG. 2B and FIG. 2G). A relatively rapid calcium response in HEK293 cells may result from over-expression of GPR37. A sustained iCa^2+ increase in pMΦ may result from the expression of transient receptor potential (TRP) ion channels in these immune cells. It is noteworthy that macrophages express TRPV2 or TRPM2, which are involved in phagocytosis during bacterial infection. […] NPD1-triggered iCa^2+ increase in pMΦ is also Gi-dependent, since PTX blocked this increase (FIG. 2H). For comparison, ATP-evoked iCa^2+ increase was not altered in GPR37-deficient pMΦ (FIG. 2H).

GPR37 [2] = biological target: T1, GPR37 (Homo sapiens, UniProt O15354); assay: Ca2+ imaging (Fura-2AM) in HEK293 cells transfected with human GPR37 cDNA; format: cell-based; settings: for effect on NPD1-induced iCa2+ increase: NPD1 30 nM, PTX 1 μg/mL 16 h before, thapsigargin 1 μM 3 min, EGTA 10 mM 3 min; for intracellular Ca2+ (iCa2+) increase: 3 min, GPR37-expressing HEK293 cells
T1 construct: host or cells: HEK293 flip-in cells
T1 sequence (O15354 27-613): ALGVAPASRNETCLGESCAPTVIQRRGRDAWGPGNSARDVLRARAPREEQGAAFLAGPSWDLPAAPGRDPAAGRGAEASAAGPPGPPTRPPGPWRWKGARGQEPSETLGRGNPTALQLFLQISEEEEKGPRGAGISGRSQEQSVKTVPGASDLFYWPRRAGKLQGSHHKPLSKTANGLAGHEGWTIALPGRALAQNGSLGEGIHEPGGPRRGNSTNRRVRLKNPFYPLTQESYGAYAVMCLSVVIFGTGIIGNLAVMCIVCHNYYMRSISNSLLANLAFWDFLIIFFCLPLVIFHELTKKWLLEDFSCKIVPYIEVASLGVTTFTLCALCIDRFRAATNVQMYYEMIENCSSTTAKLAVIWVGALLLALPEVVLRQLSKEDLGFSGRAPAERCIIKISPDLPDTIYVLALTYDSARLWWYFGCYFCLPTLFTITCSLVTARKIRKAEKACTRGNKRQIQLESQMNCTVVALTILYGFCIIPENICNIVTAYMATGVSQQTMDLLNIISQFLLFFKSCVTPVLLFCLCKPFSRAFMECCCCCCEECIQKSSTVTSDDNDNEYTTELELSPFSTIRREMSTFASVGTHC
Experimental: (§4) HEK cell culture and transfection. HEK293 flip-in cell line was purchased from Duke Cell Culture Facility. Cells were cultured in high glucose (4.5 g/L) Dulbecco's Modified Eagle's Medium containing 10% (v/v) fetal bovine serum (Gibco). Transfection (2 μg cDNA) was performed with Lonza electroporation (Lonza) at 70% confluency and the transfected cells were cultured in the same growth medium for 48 h before use. The hGPR37-V5 pLenti304 plasmids were obtained from DNASU (Tempe, AZ), and hGPR32, hChemR23 and hALX pcDNA3 plasmids were provided by Dr. Serhan from Harvard Medical School, Boston.
as §2
In order to investigate how GPR37 regulates intracellular signaling, we conducted Ca^2+ imaging in HEK293 cells that overexpress GPR37. […] Thus, we hypothesized TX14 and SPM may activate the same receptors and elicit similar intracellular responses. We transfected HEK293 cells with human GPR37 cDNA, loaded these cells with Ca^2+ dye Fura-2AM, and stimulated them with TX14 and various SPMs, using ionomycin (2 μM) as a positive control for Ca^2+ influx (FIG. 2A, FIG. 2B, FIG. 2C).

[3] = system: peritoneal macrophages (pMΦ); assay: Phagocytosis assay with fluorescence-labeled zymosan particles in peritoneal macrophages; format: cell-based, mouse
Experimental: as §1
Phagocytosis assay. The phagocytosis assay was modified from a previously described protocol (Sommer C, and Kress M. NeurosciLett. 2004, 361, 184-187). pHrodo® Red Zymosan Bioparticles (diameter, 3 μm, Thermo scientific, Catalog: P35364) were rinsed and reconstituted in RPMI medium. Particles were centrifuged (1 min at 100 g) onto adherent peritoneal macrophages at a ratio of 10:1 to synchronize binding and internalization. After 30 min incubation at 37° C., non-adherent beads were removed with cold PBS and cells were fixed with 2% formalin. Four optic fields were photographed with epifluorescence microscopy. Quantification of zymosan particles ingested by MΦ was conducted on at least 200 macrophages/condition/well, and triplicates were included for statistical analysis.
We investigated whether iCa^2+ increases would trigger phagocytosis of pathogens such as zymosan by macrophages. Zymosan is a well-studied pathogen and activates TLR2 to trigger inflammation and inflammatory pain in rodents after intraplantar injection. We tested phagocytosis in pMΦ using fluorescence-labeled zymosan particles.

ChemR23 = biological target: T2, ChemR23 (Homo sapiens, UniProt Q99788); assay: Ca2+ imaging (Fura-2AM) in HEK293 cells transfected with ChemR23 cDNA; format: cell-based; settings: 1 μM; HEK293 cells expressing ChemR23
T2 construct: host or cells: HEK293 flip-in cells
T2 sequence (Q99788 1-373): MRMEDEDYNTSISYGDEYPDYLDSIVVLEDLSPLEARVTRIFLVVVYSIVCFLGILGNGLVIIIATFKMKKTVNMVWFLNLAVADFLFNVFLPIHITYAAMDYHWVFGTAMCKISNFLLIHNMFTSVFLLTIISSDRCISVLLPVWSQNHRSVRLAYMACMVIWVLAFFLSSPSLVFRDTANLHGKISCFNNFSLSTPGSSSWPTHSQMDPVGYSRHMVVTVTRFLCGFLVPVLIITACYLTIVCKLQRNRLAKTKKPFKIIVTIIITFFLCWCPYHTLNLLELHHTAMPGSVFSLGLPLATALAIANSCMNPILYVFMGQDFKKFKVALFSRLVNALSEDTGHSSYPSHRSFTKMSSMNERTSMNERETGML
Excerpt: (§5) FIG. 10A-FIG. 10C. Characterization of intracellular Ca^2+ changes in HEK293 cells expressing ChemR23, GPR32, and ALX. Ca^2+ imaging with Fura-2AM indicator showing iCa^2+ levels in HEK293 cells transfected with ChemR23 (FIG. 10A), GPR32 (FIG. 10B), and ALX (FIG. 10C) cDNAs. Note that NPD1 fails to elicit iCa^2+ increase in HEK293 cells expressing ChemR23, GPR32, and ALX. […] ATP is included as a positive control. *P<0.05, compared with baseline n=44˜97 cells from 3 cultures. All the data are expressed as mean±s.e.m.
as §4
as §2, with “Values from each of the experiments were normalized to the baseline ratio of 340/380 nm.” left out

GPR32 = biological target: T3, GPR32 (Homo sapiens, UniProt O75388); assay: Ca2+ imaging (Fura-2AM) in HEK293 cells transfected with GPR32 cDNA; format: cell-based; settings: 1 μM; HEK293 cells expressing GPR32
T3 construct: host or cells: HEK293 flip-in cells
T3 sequence (O75388 whole entry): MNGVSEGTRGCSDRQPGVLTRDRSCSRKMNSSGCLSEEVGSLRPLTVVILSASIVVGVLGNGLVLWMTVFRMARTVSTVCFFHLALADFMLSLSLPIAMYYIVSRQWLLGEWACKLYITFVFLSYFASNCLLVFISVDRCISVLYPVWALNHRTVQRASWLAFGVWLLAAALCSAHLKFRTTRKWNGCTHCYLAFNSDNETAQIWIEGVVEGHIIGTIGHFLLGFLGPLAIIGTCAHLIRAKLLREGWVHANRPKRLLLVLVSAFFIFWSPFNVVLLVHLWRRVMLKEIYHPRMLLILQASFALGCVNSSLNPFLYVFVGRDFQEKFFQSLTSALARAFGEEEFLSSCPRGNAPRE
Excerpt: as §5, §4
as §2, with “Values from each of the experiments were normalized to the baseline ratio of 340/380 nm.” left out

ALX = biological target: T4, ALX (Homo sapiens, UniProt P25090); assay: Ca2+ imaging (Fura-2AM) in HEK293 cells transfected with ALX cDNA; format: cell-based; settings: HEK293 cells expressing ALX
T4 construct: host or cells: HEK293 flip-in cells
T4 sequence (P25090 1-351): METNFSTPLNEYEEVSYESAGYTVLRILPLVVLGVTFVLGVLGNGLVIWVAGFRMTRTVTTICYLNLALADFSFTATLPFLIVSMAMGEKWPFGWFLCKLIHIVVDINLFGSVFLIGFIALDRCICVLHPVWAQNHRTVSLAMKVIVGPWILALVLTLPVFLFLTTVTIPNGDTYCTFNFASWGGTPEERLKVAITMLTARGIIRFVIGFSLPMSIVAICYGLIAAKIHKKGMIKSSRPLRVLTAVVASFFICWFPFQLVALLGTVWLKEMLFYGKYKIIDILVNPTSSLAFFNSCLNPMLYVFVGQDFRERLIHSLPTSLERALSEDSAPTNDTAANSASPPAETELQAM
Excerpt: as §5, §4, §2
Several SPM receptors have been identified such as ChemR23 for RvE1, GPR32 for RvD1, and ALX for lipoxin A. We transfected human cDNAs of ChemR23, GPR32, and ALX in HEK293 cells and checked Ca^2+ responses following the treatment of each SPM.

GPR37 [4] = biological target: T5, GPR37 (Mus musculus, UniProt Q9QY42); assay: Ca2+ imaging (Fluo-4AM) in peritoneal macrophages (pMΦ) from WT and Gpr37−/− mice; format: cell-based; settings: PTX 1 μg/mL, 16 h; pMΦ
T5 sequence (Q9QY42 27-600): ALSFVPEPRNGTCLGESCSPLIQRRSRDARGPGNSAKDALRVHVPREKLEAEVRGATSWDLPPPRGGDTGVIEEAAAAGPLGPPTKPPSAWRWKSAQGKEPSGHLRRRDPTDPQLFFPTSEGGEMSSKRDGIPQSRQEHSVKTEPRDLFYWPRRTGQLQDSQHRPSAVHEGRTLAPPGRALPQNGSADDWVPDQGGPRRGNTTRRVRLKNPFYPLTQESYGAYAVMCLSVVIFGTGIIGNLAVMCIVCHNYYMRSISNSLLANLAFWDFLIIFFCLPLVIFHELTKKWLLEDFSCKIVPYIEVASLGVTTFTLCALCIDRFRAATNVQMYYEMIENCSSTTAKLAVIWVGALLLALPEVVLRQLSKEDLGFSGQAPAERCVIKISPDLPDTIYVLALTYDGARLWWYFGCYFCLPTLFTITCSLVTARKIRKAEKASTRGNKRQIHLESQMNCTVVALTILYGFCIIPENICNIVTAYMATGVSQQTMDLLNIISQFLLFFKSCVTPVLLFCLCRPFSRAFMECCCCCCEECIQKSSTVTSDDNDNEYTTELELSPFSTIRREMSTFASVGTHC
Experimental: as §1, §2, §3

[5] = LY294002 50 μM, U0126 10 μM, PTX 1 μg/mL, BAPTA-AM 10 μM

Nc1ncnc2c1ncn2[C@@H]1O[C@H](COP(=O)(O)OP(=O)(O)OP(=O)(O)O)[C@@H](O)[C@H]1O [ATP]
ATP-evoked iCa2+ increase (GPR37 [1]): not altered

CC(=O)OCOC(=O)CN(CC(=O)OCOC(C)=O)c1ccccc1OCCOc1ccccc1N(CC(=O)OCOC(C)=O)CC(=O)OCOC(C)=O [BAPTA-AM]
effect on NPD1-induced iCa2+ increase (GPR37 [2]): inhibited | effect on baseline phagocytosis ([3]; BAPTA-AM 10 μM): blocked | effect on NPD1-induced phagocytosis [3, 5]: blocked

O=C(O)CN(CCOCCOCCN(CC(=O)O)CC(=O)O)CC(=O)O [EGTA]
effect on NPD1-induced iCa2+ increase (GPR37 [2]): inhibited

CC/C=C\C/C=C\C/C=C\C/C=C\C/C=C\CCCC(=O)O [EPA]
intracellular Ca2+ (iCa2+) increase (GPR37 [2]; 1 μM): Neither did the precursors of these SPMs (DHA and EPA), at a much higher concentration (1 μM), evoked calcium responses | Ca2+ response (ChemR23): fail to evoke Ca^2+ responses | Ca2+ response (GPR32): fail to evoke Ca^2+ responses | Ca2+ response (ALX; 1 μM): fail to evoke Ca^2+ responses

CC/C=C\C[C@H](O)[C@H](O)/C=C/C=C/C=C\C=C\[C@@H](O)C/C=C\CCC(=O)O [RvD2]
intracellular Ca2+ (iCa2+) increase (GPR37 [2]; 100 nM): failed to increase iCa^2+

N#CC(=C(/N)Sc1ccccc1N)/C(C#N)=C(\N)Sc1ccccc1N [U0126]
effect on NPD1-induced phagocytosis [3]: inhibited

C[C@H](CCC(=O)O)C[C@H](C)C[C@H](C)C(=O)/C=C(\O)[C@H](C)C[C@H](C)C/C=C/[C@@H](C)[C@@H](O)[C@@H](C)[C@@H](O)C[C@@H]1CC[C@@](C)([C@H]2CC[C@@](C)([C@@H](C)O)O2)O1 [ionomycin]
phagocytosis ([3]; 2 μM, both WT and Gpr37 KO mice): markedly increased phagocytosis

CCCCC[C@H](O)/C=C/C=C\C=C\C=C\[C@@H](O)[C@@H](O)CCCC(=O)O [lipoxin A1]
intracellular Ca2+ (iCa2+) increase (GPR37 [2]; 100 nM): failed to increase iCa^2+ | iCa2+ increase / Ca2+ response (ALX): failed to evoke Ca^2+ responses

C/C=C(/C)C(=O)O[C@H]1C(C)=C2[C@H]([C@@H]1OC(=O)CCCCCCC)[C@@](C)(OC(C)=O)C[C@H](OC(=O)CCC)[C@@]1(O)[C@H]2OC(=O)[C@@]1(C)O [thapsigargin]
effect on NPD1-induced iCa2+ increase (GPR37 [2]): inhibited

Annexin 1: SPM ligand for ALX, from Anaspec (AMVSEFLKQAWFIENEEQEYVQTVK)
Ca2+ response (ALX; 100 nM): fail to evoke Ca^2+ responses

pertussis toxin
effect on NPD1-induced iCa2+ increase (GPR37 [2]): completely blocked | effect on NPD1-triggered iCa2+ increase (GPR37 [4]): blocked | effect on NPD1-induced phagocytosis [3, 5]: inhibited

Reference: patent US12521356B2, “Compositions and methods for treating pain, inflammation, infection, malaria, and sepsis” (Duke University, priority 2018, dated 2026)
